Reference: patent US20120141601A1, “DIETARY SUPPLEMENT, FEED AND PHARMACEUTICAL COMPOSITION CONTAINING CHIA SEED AND MACA, AND PREPARATION METHOD THEREOF” (priority 2009, published 2012)

Assays:
Assay type in all cases: in vivo, Sprague-Dawley male rats
[1] = Blood alcohol concentration
Procedure: (§1) Sprague-Dawley male rats (Orientbio) were divided into groups of six which were then administered for 26 days with neither alcohol nor the extracts for the normal group, with alcohol but not with extracts for the control group, with alcohol and 1% by weight octacosanol, with alcohol and 1% by weight chia seeds, with alcohol and 0.5% by weight maca, and with alcohol and a mixture of 1% by weight chia seeds and 0.5% by weight maca, respectively. Typical feedstuff was fed, together with water, to the normal group and, together with 25% alcohol, to the control group while the feedstuff for the other groups contained the test substances as described above.
Blood alcohol concentrations were measured after the rats were administered 25% alcohol every day for 30 days. In this regard, blood samples were taken from the tail vein of the rats of the test groups set in Test Example 3 at 6 P.M. every five days, and blood alcohol concentrations were determined using an alcohol tester (Asia Commerce Co. Ltd., Model No. LION SD-400).
To investigate the effect of chia seeds and maca (extract), used as active ingredients in the composition of the present invention, on the degradation of blood alcohol, measurements of the blood alcohol concentration were analyzed. The blood alcohol concentration was 0% for the normal group and 0.06% for the control group. […]

aldehyde dehydrogenase = test: Hepatic aldehyde dehydrogenase activity in liver homogenate; settings: liver homogenate supernatant, absorbance at 340 nm; groups of Test Example 3
Procedure: as §1
(§2) In order to investigate the effect of the composition of the present invention on alcoholysis enzymes, the rats of the test groups set in Test Example 3 were anesthetized with chloroform and subjected to ventrotomy to excise the liver. The liver tissue was homogenized in 10 volumes of 100 mM sodium phosphate buffer, pH 7.4, using a homogenizer and then disrupted with an ultrasonicator. Centrifugation at 700 G for […] removed nuclei and cell debris. After centrifugation at 9,000 G for 20 min, the supernatant was measured for hepatic alcohol dehydrogenase and aldehyde dehydrogenase activity. The protein concentration of the supernatant was determined using a BCA kit and used to normalize the amount of liver tissue between test groups. […]

[2] = Endurance test, weighted swimming in bath
Procedure: as §1
A swimming experiment was conducted in a transparent acryl bath (with a dimension of length 80 cm×width 50 cm×depth 90 cm) ⅔ filled with water maintained at 24° C. The Sprague-Dawley male rats (Orientbio) were allowed to freely swim with a weight equivalent to 8˜10% of their body weight suspended from the abdomen thereof. Measurements were made of the time it took for the rat to swim to a point at which the head was submerged for 10 sec or longer below the water surface (Hong, S. G., J. Kor. Food Sci. Nutr. 32(7), 1076 (2003)).
To investigate the effects of chia seeds and maca (extract), used as active ingredients in the composition of the present invention, on endurance, measurements of the swing time were analyzed. The swimming time was measured to be 306.33±6.21 sec for the normal group, but 147.16±21.71 sec for the control group, which was equivalent to about 46% of that of the normal group. In contrast, 352.66±34.69 sec was measured for the octacosanol-administered group, 355.66±34.62 sec for the chia seed-administered group, 476.00±45.56 sec for the maca-administered group, and 527.83±25.57 sec for the group co-administered with chia seeds and mace, which were increased by 2.4, 2.4, 3.2 and 3.5 times, compared to the control group. […]

alcohol dehydrogenase = test: Hepatic alcohol dehydrogenase activity in liver homogenate; settings: liver homogenate supernatant, absorbance at 340 nm; groups of Test Example 3
Procedure: as §1, §2

[3] = tested on: high-density lipoproteins; test: High-density lipoprotein level in whole blood; settings: 25% alcohol daily for 25 days, whole blood from the heart
Procedure: as §1
(§3) After the rats of the test groups set in Test Example 3 were administered with 25% alcohol every day for 25 days, blood samples were taken from the tail vein and measured for testosterone level using enzyme immunoassay (Roche, USA). The levels of testosterone and high-density lipoproteins in the whole blood taken from the heart were measured in Eone Reference Laboratory.
To investigate the effect of chia seeds and maca (extract), used as active ingredients in the composition of the present invention, on penile function, the levels of high-density lipoproteins were analyzed. […]

testosterone = test: Testosterone level in whole blood; settings: 25% alcohol daily for 25 days, whole blood from the heart
Procedure: as §1, §3
To investigate the effect of chia seeds and maca (extract), used as active ingredients in the composition of the present invention, on testosterone activity, the levels of testosterone in whole blood were analyzed. […]

[4] = Rotarod performance test for space perception and endurance
Procedure: as §1
The groups set in Test Example 3 were measured for space perception activity by the rotarod performance test which was conducted for 5 min for each rat with the cylinder (380×260×420 mm) of rotarod LE8300 (LETICA, SPAIN) rotating at a speed of 4 to 40 rpm. Cases in which the rats fell on the ground within 20 sec after starting were excluded from the measurement.
To investigate the effect of chia seeds and maca (extract), used as active ingredients in the composition of the present invention, on space perception and endurance, measurements of the rotarod performance test were analyzed. […] In contrast, the time was 98.16±11.35 sec for octacosanol-administered group, 151.50±5.08 sec for the chia seed-administered group, 215.33±13.14 sec for the maca-administered group and 240.66±39.30 sec for the group co-administered with chia seeds and maca, which were increased by 3, 5, 7, and 8 times, respectively, compared to the control group. As apparent from the data of the rotarod performance test, space perception and endurance were enhanced by octacosanol, chia seeds, maca, and a combination of chia seeds and maca, and most increased, inter alia, by the mixture of chia seeds and maca (FIG. 6, Table 2).

[5] = Locomotor activity, open field test
Procedure: as §1
The locomotor activities of the groups set in Test Example 3 were measured in an open field test chamber (38.0 cm×26.0 cm×42.0 cm; LETICA, SPAIN). Horizontal activity was recorded by an IR detector for 10 min To investigate the effects that chia seeds and maca (extract), used as active ingredients in the composition of the present invention, had on locomotor activity, measurements of the horizontal activity were analyzed. The horizontal activity was 1179.2±21.2 cm for the normal group, but […] for the control group, which was decreased by about 75% compared to the normal. […]

CCCCCCCCCCCCCCCCCCCCCCCCCCCCO [octacosanol]
blood alcohol concentration ([1]; 25% alcohol daily for 30 days, tail vein blood, groups of Test Example 3): 0.034% | decrease of blood alcohol concentration compared to the control group ([1]; vs alcohol control group): 55% | aldehyde dehydrogenase activity (aldehyde dehydrogenase): 9.8±1.4 mmole/min/mg protein | swimming time ([2]; 26 days, alcohol plus 1% octacosanol, 1% chia seeds, 0.5% maca or 1% chia seeds + 0.5% maca in feed, weight 8-10% of body weight): 352.66 ± 34.69 s | swimming time ([2]; Table 1, endurance test with swimming in bath): 352.66 ± 34.69 s | increase of swimming time compared to the control group ([2]; vs alcohol control group): 2.4 times | alcohol dehydrogenase activity (alcohol dehydrogenase): 8.9±0.8 mmole/min/mg protein | level of high-density lipoproteins [3]: 32.5 ± 1.5 mg/dL | level of testosterone in whole blood (testosterone): 195 ± 62.2 ng/dL | time on rotarod ([4]; Table 2, rotarod performance test): 98.16 ± 11.35 s | time that the rats stayed on the rotating cylinder ([4]; rotarod 4 to 40 rpm, 5 min, groups of Test Example 3): 98.16 ± 11.35 s | increase of time on rotating cylinder compared to the control group ([4]; vs alcohol control group): 3 times | horizontal activity ([5]; open field, IR detector, 10 min, groups of Test Example 3): 240.2±12.3 cm | increase of horizontal activity compared to the control group ([5]; vs alcohol control group): 8 times
